Measured values: publication PMC6444347 (Nature chemistry, 2019)
Residue numbers refer to the chain shown, from its start.

Legend:
PBP4 [1] = target: T1, PBP4 (Staphylococcus aureus, UniProt P72355); assay: fluorogenic D,D-transpeptidation assay with Rf470DL, dose-response; type: biochemical
T1 sequence (P72355 25-431): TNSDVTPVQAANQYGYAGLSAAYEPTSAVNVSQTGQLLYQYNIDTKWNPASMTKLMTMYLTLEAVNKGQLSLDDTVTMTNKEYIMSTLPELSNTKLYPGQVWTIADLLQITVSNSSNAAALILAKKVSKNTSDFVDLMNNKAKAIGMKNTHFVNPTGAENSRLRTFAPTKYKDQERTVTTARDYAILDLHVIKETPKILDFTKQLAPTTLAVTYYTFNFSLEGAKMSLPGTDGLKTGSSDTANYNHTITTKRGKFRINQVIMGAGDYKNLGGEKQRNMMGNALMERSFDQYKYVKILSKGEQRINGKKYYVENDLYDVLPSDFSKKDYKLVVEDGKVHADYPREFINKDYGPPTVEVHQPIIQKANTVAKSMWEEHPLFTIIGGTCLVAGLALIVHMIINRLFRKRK

PBP4 [2] = target: T2, PBP4 (Staphylococcus aureus, UniProt A0A0H2WY27); assay: Nitrocefin hydrolysis; type: biochemical
T2 sequence (A0A0H2WY27 25-431): T1 sequence (P72355 25-431) with L210H

| Compound | IC50 (PBP4 [1]) | Nitrocefin hydrolysis (β-lactamase activity) competition assay (PBP4 [2]) |
| --- | --- | --- |
| CO[C@@]1(NC(=O)Cc2cccs2)C(=O)N2C(C(=O)O)=C(COC(N)=O)CS[C@@H]21 [Cefoxitin] | ~2340 nM | – |
| O=C(Cc1cccs1)N[C@@H]1C(=O)N2C(C(=O)O)=C(/C=C/c3ccc([N+](=O)[O-])cc3[N+](=O)[O-])CS[C@H]12 [Nitrocefin] | – | in the presence of Cefoxitin or Carbenicillin, Nitrocefin hydrolysis was strongly inhibited |
